For orientation: pIC50 means −log10 of the IC50, conventionally taken in molar units.

pIC50: −log10 of the molar value. Counter-ions that a name gives are not always drawn.

This note sets out measurements from patent US20260250290A1 (BRISTOL-MYERS SQUIBB COMPANY, priority 2023, published 2026).

In this test the target is T1, SGK1 (Homo sapiens, UniProt O00141).
T1 sequence (O00141 1-431): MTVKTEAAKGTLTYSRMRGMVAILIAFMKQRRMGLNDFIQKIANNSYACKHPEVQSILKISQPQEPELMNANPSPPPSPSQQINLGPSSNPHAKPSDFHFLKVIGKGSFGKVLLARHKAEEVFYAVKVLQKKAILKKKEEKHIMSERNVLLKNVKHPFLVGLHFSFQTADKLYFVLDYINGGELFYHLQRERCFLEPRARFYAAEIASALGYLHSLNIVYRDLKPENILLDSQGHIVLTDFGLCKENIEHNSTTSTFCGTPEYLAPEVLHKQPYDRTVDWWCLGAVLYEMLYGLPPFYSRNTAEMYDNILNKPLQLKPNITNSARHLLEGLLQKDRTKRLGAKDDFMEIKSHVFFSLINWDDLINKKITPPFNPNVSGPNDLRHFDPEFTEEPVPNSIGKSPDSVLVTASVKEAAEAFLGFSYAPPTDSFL
In words: SGK1 inhibition Assay B (Echo mass spectrometry of phosphorylated peptide product). The test is classed as biochemical. The settings on record: 60 min at room temperature.
The compound `CC(C)N1CC2(CN(c3cccc(C(=O)N[C@@H]4CCCN(c5cc(-c6ccc7cnn(C)c7c6)n6ncnc(N)c56)C4)n3)C2)C1` [Example 821, (R)-N-(1-(4-amino-7-(1-methyl-1H-indazol-6-yl)pyrrolo[2,1-f][1,2,4]triazin-5-yl)piperidin-3-yl)-6-(6-isopropyl-2,6-diazaspiro[3.3]heptan-2-yl)picolinamide] had a pIC50 of 7.16. The figure for `CN1[C@@H]2CC[C@H]1C[C@H](Oc1cc(Cl)sc1C(=O)N[C@@H]1CCCN(c3cc(C4=CC(=O)OC4)n4ncnc(N)c34)C1)C2` [Example 927, N—((R)-1-(4-amino-7-(5-oxo-2,5-dihydrofuran-3-yl)pyrrolo[2,1-f][1,2,4]triazin-5-yl)piperidin-3-yl)-5-chloro-3-(((1R,3s,5S)-8-methyl-8-azabicyclo[3.2.1]octan-3-yl)oxy)thiophene-2-carboxamide, TFA salt] is 10.00; for `CCC(CO)NC1CCC(Oc2nc(C)sc2C(=O)NC2CCCN(c3cc(C4=C(C)C(=O)OC4)n4ncnc(N)c34)C2)CC1` [Example 1009, N-((R)-1-(4-amino-7-(4-methyl-5-oxo-2,5-dihydrofuran-3-yl)pyrrolo[2,1-f][1,2,4]triazin-5-y1)piperidin-3-y1)-4-((4-(((S)-1-hydroxybutan-2-yl)amino)cyclohexyl)oxy)-2-methylthiazole-5-carboxamide] it is 8.72.

`CCC1=C(c2cc(N3CCC[C@@H](NC(=O)c4sc(C)nc4O[C@H]4CC[C@@H](NC(C)CO)CC4)C3)c3c(N)ncnn23)COC1=O` (single isomer, unassigned) [Example 1019] had a pIC50 of 9.30.

Regarding `Cc1nc(O[C@@H]2C[C@H]3CC[C@@H](C2)N3C)c(C(=O)N[C@@H]2CCCN(c3cc(-c4csc(C(C)O)c4)n4ncnc(N)c34)C2)s1` (stereo partly drawn) [Example 928, N-((3R)-1-(4-amino-7-(5-(1-hydroxyethyl)thiophen-3-yl)pyrrolo[2,1-f][1,2,4]triazin-5-yl)piperidin-3-yl)-2-methyl-4-(((1R,3s,5S)-8-methyl-8-azabicyclo[3.2.1]octan-3-yl)oxy)thiazole-5-carboxamide, TFA salt], the negative-log IC50 (pIC50) was 10.00. Consider `CC(C)N1CC2(CN(c3cccc(C(=O)N[C@@H]4CCCN(c5cc(-c6ccc(S(C)(=O)=O)cc6)n6ncnc(N)c56)C4)n3)C2)C1` [Example 832, (R)-N-(1-(4-amino-7-(4-(methylsulfonyl)phenyl)pyrrolo[2,1-f][1,2,4]triazin-5-yl)piperidin-3-yl)-6-(6-isopropyl-2,6-diazaspiro[3.3]heptan-2-yl)picolinamide], for which the pIC50 is 7.92. Then `CC(=O)N1CC=C(c2cc(N3CCC[C@@H](NC(=O)c4sc(Cl)cc4OC4CC5COCC(C4)N5CCO)C3)c3c(N)ncnn23)C1` (stereo partly shown) [Example 986], with 7.43; and `Cc1nc(O[C@@H]2C[C@H]3CC[C@@H](C2)N3C)c(C(=O)N[C@@H]2CCCN(c3cc(-c4ccc(-n5cnnn5)nc4)n4ncnc(N)c34)C2)s1` [Example 963, N-((R)-1-(7-(6-(1/-tetrazol-1-y1)pyridin-3-y1)-4-aminopyrrolo[2,1-1][1,2,4]triazin-5-y1)piperidin-3-y1)-2-methyl-4-(((IR,35,5S)-8-methy1-8-azabicyclo[3.2 1]octan-3-yl)oxy)thiazole-5-carboxamide], with 8.52. The figure for `CC(C)N1CC2(CN(c3cccc(C(=O)N[C@@H]4CCCN(c5cc(-c6ccc(-n7cnnn7)c(CO)c6)n6ncnc(N)c56)C4)n3)C2)C1` [Example 824, (R)-N-(1-(4-amino-7-(3-(hydroxymethyl)-4-(1H-tetrazol-1-yl)phenyl)pyrrolo[2,1-f][1,2,4]triazin-5-yl)piperidin-3-yl)-6-(6-isopropyl-2,6-diazaspiro[3.3]beptan-2-yl)picolinamide] is 8.00; for `CC(=O)c1ccc(-c2cc(N3CCC[C@@H](NC(=O)c4cccc(N5CC6(C5)CN(C(C)C)C6)n4)C3)c3c(N)ncnn23)cn1` [Example 831, (R)-N-(1-(7-(6-acetylpyridin-3-yl)-4-aminopyrrolo[2,1-f][1,2,4]triazin-5-yl)piperidin-3-yl)-6-(6-isopropyl-2,6-diazaspiro[3.3]heptan-2-yl)picolinamide] it is 7.66. In turn, `Cc1nc(O[C@H]2CC[C@@H](NCCC#N)CC2)c(C(=O)N[C@@H]2CCCN(c3cc(-c4ccc(C(N)=O)c(F)c4)n4ncnc(N)c34)C2)s1` [Example 979, N—((R)-1-(4-Amino-7-(4-carbamoyl-3-fluorophenyl)pyrrolo[2,1-f][1,2,4]triazin-5-yl)piperidin-3-yl)-4-(((1s,4S)-4-((2-cyanoethyl)amino)cyclohexyl)oxy)-2-methylthiazole-5-carboxamide] gave a pIC50 of 8.40.

The compound `Cc1cc(-c2cc(N3CCC[C@@H](NC(=O)c4ccnc(N5CCN(C)CC5)n4)C3)c3c(N)ncnn23)ccc1-n1cnnn1` [Example 850, (R)-N-(1-(4-amino-7-(3-methyl-4-(1H-tetrazol-1-yl)phenyl)pyrrolo[2,1-f][1,2,4]triazin-5-yl)piperidin-3-yl)-2-(4-methylpiperazin-1-yl)pyrimidine-4-carboxamide] gave a pIC50 of 8.00. In turn, `CC(=O)c1ccc(-c2cc(N3CCC[C@@H](NC(=O)c4sc(Cl)cc4O[C@@H]4C[C@H]5CC[C@@H](C4)N5C)C3)c3c(N)ncnn23)cn1` [Example 838, N-((R)-1-(7-(6-acetylpyridin-3-yl)-4-aminopyrrolo[2,1-f][1,2,4]triazin-5-yl)piperidin-3-yl)-5-chloro-3-(((1R,3s,5S)-8-methyl-8-azabicyclo[3.2.1]octan-3-yl)oxy)thiophene-2-carboxamide] showed a pIC50 of 8.70. Then `CCC(C)(C)NC1CCC(Oc2nc(C)sc2C(=O)N[C@@H]2CCCN(c3cc(C4=C(C)C(=O)OC4)n4ncnc(N)c34)C2)CC1` (stereo partly drawn) [Example 1005, (R)—N-(1-(4-amino-7-(4-methyl-5-oxo-2,5-dihydrofuran-3-yl)pyrrolo[2,1-f][1,2,4]triazin-5-yl)piperidin-3-yl)-2-methyl-4-((4-(tert-pentylamino)cyclohexyl)oxy)thiazole-5-carboxamide], with 9.30; and `CCOC1=C(C(=O)N[C@@H]2CCCN(c3cc(C4=CCN(C(C)=O)C4)n4ncnc(N)c34)C2)CN(c2ccc(F)cc2F)C1=O` [Example 756], with 7.28. The figure for `CCN1CCC(Oc2nc(C)sc2C(=O)N[C@@H]2CCCN(c3cc(C4=CCN(C(=O)C5(C#N)CC5)C4)n4ncnc(N)c34)C2)CC1(C)C` (stereo partly drawn) [Example 985, N—((R)-1-(4-Amino-7-(1-(1-cyanocyclopropane-1-carbonyl)-2,5-dihydro-1H-pyrrol-3-yl)pyrrolo[2,1-f][1,2,4]triazin-5-yl)piperidin-3-yl)-4-((1-ethyl-2,2-dimethylpiperidin-4-yl)oxy)-2-methylthiazole-5-carboxamide] is 8.40; for `Cc1nc(OC2CCC(N3CCC3)CC2)c(C(=O)N[C@@H]2CCCN(c3cc(-c4ccc(C(N)=O)c(F)n4)n4ncnc(N)c34)C2)s1` (stereo partly drawn) [Example 1041, (R)—N-(1-(4-amino-7-(5-carbamoyl-6-fluoropyridin-2-yl)pyrrolo[2,1-f][1,2,4]triazin-5-yl)piperidin-3-yl)-4-((4-(azetidin-1-yl)cyclohexyl)oxy)-2-methylthiazole-5-carboxamide] it is 8.77.

For `COc1cc(-c2cc(N3CCC[C@@H](NC(=O)c4sc(C)nc4OC4CCC(N5CCC5)CC4)C3)c3c(N)ncnn23)ccn1` (stereo partly shown) [Example 1038], the negative-log IC50 (pIC50) is 9.05. For the compound `Cc1nc(O[C@@H]2C[C@H]3CC[C@@H](C2)N3CCO)c(C(=O)N[C@@H]2CCCN(c3cc(-c4ccc(-n5cnnn5)c(F)c4)n4ncnc(N)c34)C2)s1` [Example 960, N—((R)-1-(4-amino-7-(3-fluoro-4-(1H-tetrazol-1-yl)phenyl)pyrrolo[2,1-f][1,2,4]triazin-5-yl)piperidin-3-yl)-4-(((1R,3s,5S)-8-(2-hydroxyethyl)-8-azabicyclo [3.2.1]octan-3-yl)oxy)-2-methylthiazole-5-carboxamide], the pIC50 was 9.00. In turn, `CCC(C)(C)NC1CCC(Oc2nc(C)sc2C(=O)N[C@@H]2CCCN(c3cc(-c4ccc(C(N)=O)c(F)n4)n4ncnc(N)c34)C2)CC1` (stereo partly drawn) [Example 1055, (R)—N-(1-(4-amino-7-(5-carbamoyl-6-fluoropyridin-2-yl)pyrrolo[2,1-f][1,2,4]triazin-5-yl)piperidin-3-yl)-2-methyl-4-((4-(tert-pentylamino)cyclohexyl)oxy)thiazole-5-carboxamide] gave a negative logarithm of the IC50 (pIC50) of 9.30.

In the case of `CC(C)N1CC2(CN(c3cccc(C(=O)N[C@@H]4CCCN(c5cc(-c6cnc(-n7cnnn7)nc6)n6ncnc(N)c56)C4)n3)C2)C1` [Example 828, (R)-N-(1-(7-(2-(1H-tetrazol-1-yl)pyrimidin-5-yl)-4-aminopyrrolo[2,1-f][1,2,4]triazin-5-yl)piperidin-3-yl)-6-(6-isopropyl-2,6-diazaspiro[3.3]heptan-2-yl)picolinamide], the pIC50 is 7.60.

`CC(C)N1CC2(CN(c3cccc(C(=O)N[C@@H]4CCCN(c5cc(-c6cc(F)c(-n7cnnn7)cc6F)n6ncnc(N)c56)C4)n3)C2)C1` [Example 825, (R)-N-(1-(4-amino-7-(2,5-difluoro-4-(1H-tetrazol-1-yl)phenyl)pyrrolo[2,1-f][1,2,4]triazin-5-yl)piperidin-3-yl)-6-(6-isopropyl-2,6-diazaspiro[3.3]heptan-2-yl)picolinamide]: the pIC50 is 8.15.
